Experimental data published in patent US20250144187A1, “COMBINATION OF HYDROLASES AND ANTI-MICROORGANISM DRUGS AND USES THEREOF” (CENTRE FOR EYE AND VISION RESEARCH LIMITED, priority 2023, published 2025).

How the values were obtained:
MRSA-infected skin wound = assay: Rat skin infection model, cefdinir/lysozyme; assay type: in vivo, Sprague Dawley (SD) rats; conditions: combination therapy vs control or mono-therapy groups
Procedure: 16) Rat skin Infection model. […] Others were infected by about 5×10^11 CFU of mid-log phase MRSA from our own collection. Briefly, all rats were firstly pre-depilated by using 10% Na2S to get an uncovered back area of 4 cm×4 cm prior to 24 hours for the anesthetization on rats. Then, the skin of anesthetized rat was removed until fascial region under sterile condition, followed by bacterial infection by spraying 5×10^11 CFU of MRSA suspension on wound (3 cm×3 cm). To collect these bacterial suspensions, mid-log phase MRSA would be collected by centrifugation at 4500 g for 15 minutes washed with PBS for 3 limes and re-suspended in cold PBS to get bacterial suspension with an initial density of about 4.0×10^11 CFU/ml according to pre-experiment. Next, 1.25 ml of bacterial suspensions was inoculated into wound, Normal saline was used to replace bacterial suspension in uninfected group. After 1 hour infection, wound of infected rat was covered by sterile medical gauze. All sterile medical gauzes were 0.2 g/cm^2, which were further covered by two layers of sterile gauzes and fixed by sterile tapes. After that, rats were monitored until they were fully awake, followed by return to their cages. After 24 hours infection, these sterile medical gauzes were replaced with new sterile medical gauzes. […] About 4-μm sections was analyzed by using the hematoxylin and eosin (H-E) staining. […]

MRSA [1] = assay: High-throughput screening of 4989 compounds with human lysozyme; assay type: cell-based, Staphylococcus aureus; conditions: for MRSA Inhibition ratio (%): compound 2.5 μM + 1 mg/ml lysozyme relative to compound only
Procedure: 1) High-throughput screening. […] Specifically, these compounds were added into bacterial suspensions (1×10^6 CFU/ml) in the […] microliter plate, in which each well contained 50 μl of lysogeny broth (LB) medium with or without 1 mg/ml lysozyme. LB medium in the absence of bacteria served as background group. Then, the real-time growth curves of MRSA were monitored per hour and for 24 hours. Experiments were performed with the biological replicates. Fly analyzing the absorbance 600 nm (OD600) of bacterial culture at the time point of 24-hour, the inhibition ratio (%) was calculated according to (ODcontrol−ODsample)/(ODcontrol−ODbackground)×100%. Here, the relative and apparent inhibition ratios were figured out by using the absorbance of bacterial suspension only containing compound and that without any drug treatment as ODcontrol, respectively. The relative and apparent inhibition ratios indicated the combination effect and potential toxicity of compound in combination effect. Synergy effect was defined as the relative inhibition ratio of ≥90%.

MRSA [2] = assay: Check board broth micro-dilution assay, tedizolid phosphate with lysozyme; assay type: cell-based, Staphylococcus aureus; conditions: for FICI: tedizolid phosphate + lysozyme
Procedure: 2) Check board broth micro-dilution assays. According to standard two-fold dilution method [Sun. H et al., Nat. Commun. 11, 5263 (2020) tedizolid phosphate at different concentrations were added into fresh LB medium (or trypticase soy troth medium with 5% defibrinated horse blood) containing different concentrations of human lysozyme in 96-well plate. Then, 20 μl of 1.0×10^7 CFU/ml logarithmic cultures of MRSA or MRSE were added into each well of the plate and co-incubated overnight. Drug-free LB medium in the absence or presence of bacteria served as background control and growth control group, respectively. […] Thus, there would be a series of FICI values. In most of cases, the lowest one among these values was listed to reflect the best achieving degree of combination therapy. In terms of the lowest FICI, FICI≤0.5, 0.5<FICI<1 or FICI≥1, would indicate the combination has synergy, part synergy or non-synergy effects, respectively.

MRSE = assay: Time-killing curves, tedizolid phosphate/lysozyme; assay type: cell-based, Staphylococcus epidermis; conditions: tedizolid phosphate + 0.5 mg/ml lysozyme, after 22 hours; dropping from the level of 10^12
MRSA and MRSE biofilm = assay: Biofilm crystal violet assay, tedizolid phosphate/lysozyme; assay type: cell-based; conditions: tedizolid phosphate + 0.5 mg/ml lysozyme
Procedure: 4) Biofilm assays. According to previously described method [Thappeta, K. R. et al., ACS Infect. Dis. 6, 1228-1237(2020); Merritt, J. H. et al., Curr. Protoc. Microbiol. Chapter 1, Unit 1B.1 (2005); O'Toole, G. A. et al., J, Vis. Exp. 47, 2437 (2011)], biofilm was assessed by using an adherence assay on 96-well tissue culture plates. Briefly, tedizolid phosphate at final concentration of 0.3 μg/ml was added into bacterial suspensions (1×10^6 CFU/ml, in LB medium) in the absence or presence of 0.5 mg/ml lysozyme. LB medium with or without bacteria served as positive or negative control group, respectively. After overnight incubation at 37° C., the bacterial suspension was removed, and well was gently washed twice with sterile PBS to remove exclusively non-adherent bacteria. The adherent biofilm was fixed by using 95% methanol at 60° C. for 15 minutes. Then, biofilm was stained with 1% Crystal violet (100 μl/well) at 37° C. for 15 minutes, Ater that, all wells were gently washed with PBS to remove redundant crystal violet. Finally, the dye was solubilized with […] of 95% ethanol per well at 37° C. for 3 minutes. The optical density at 590 nm of solution in each well was measured using a micro-plate reader. Herein, strong biofilm, weak biofilm and no biofilm were defined as “[…]”, “ODnegative control<ODsample<2ODnegative control” and “ODsample≤ODnegative control”. […]

SMILES	decrease in the level of IL-6 in wounds (MRSA-infected skin wound)	decrease in the level of ROS in wounds (MRSA-infected skin wound)	MRSA Combination (MRSA [1]; OD600 at 24-hour, compound 2.5 μM + 1 mg/ml lysozyme)	MRSA Drug only (MRSA [1]; OD600 at 24-hour, compound 2.5 μM without lysozyme)	MRSA Inhibition ratio (%) (MRSA [1])	MRSA Inhibition ratio (%) (MRSA [1]; listed as Ce ? dinir)	FICI (MRSA [2]; absence of urea-cycle inhibitors)	FICI (MRSA [2]; cultures of both inhibitors)	FICI (MRSA [2]; presence of BB-Cl-Amidine or acetohydroxamic acid)	fractional inhibitory concentration index (FICI) (MRSA [2]; tedizolid phosphate and lysozyme)	bacterial load per ml culture (MRSE)	biofilm formation (absorbance at 590 nm), pre-biofilm stage (MRSA and MRSE biofilm)
C=CC1=C(C(=O)O)N2C(=O)[C@@H](NC(=O)/C(=N\O)c3csc(N)n3)[C@H]2SC1 [cefdinir, Cefdinir]	> 16%	more than 36%	0.0564	0.6975	above 90%	99.16%	–	–	–	–	–	–
Cn1nnc(-c2ccc(-c3ccc(N4C[C@H](COP(=O)(O)O)OC4=O)cc3F)cn2)n1 [tedizolid phosphate, Tedizolid Phosphate]	–	–	–	–	–	–	0.015	up to 0.25	0.1	< 0.023	10^6 colony forming units (CFUs)	biofilm was eliminated
